Data: patent US7968600B2, “Medicament for preventive and therapeutic treatment of physical dysfunction caused by nerve damage” (Nanoegg Research Laboratories, Inc., priority 2007, dated 2011)

Columns and labels:
regenerated nerves = settings: 50 μL (10 nM RA); cited from earlier work
[1] = tested on: traumatic spinal cord injury model rats; experiment: Treadmill test (compulsory walking) in traumatic spinal cord injury model rats; format: in vivo, Wistar rats; settings: for Number of contact to back end wall: 21st day from the injury, treadmill 8 m/min for 5 min, **p < 0.01; for number of the contact with the back end wall as compared to the control group / walking period as compared to the control group: treadmill test
Method: (§1) 23 of 9 weeks old female Wistar rats had on their spinal cords of the thoracic vertebrae injured under anesthesia by loading a weight of 10 g dropped from a height of 2.5 cm to prepare traumatic spinal cord injury model rats with impaired motor function of the hind limb. The 23 rats were divided into the following 3 groups: • 1st Group: 8 rats were administered orally with 3 mg/kg of 4-[(5,6,7,8-tetrahydro-5,5,8,8-tetramethyl-2-naphthalenyl)carbamoyl]benzoic acid once before the injury and then once a day. • 2nd Group: 8 rats were administered with 0.15 mg/kg of 4-[(5,6,7,8-tetrahydro-5,5,8,8-tetramethyl-2-naphthalenyl)carbamoyl]benzoic acid directly to the injured site immediately after the injury, and then administered subcutaneously once a day near the injured area. • 3rd Group: 7 rats were administered orally with 1 ml/kg of 0.5% carboxymethyl cellulose (CMC) solution as a control group.
(§2) Administration was performed every day for 21 days after the injury for each group. The motor function of the hind limb was evaluated according to the Basso-Beattie-Bresnahan (BBB) score every day up to 21st day, and 28th day after the injury. For animals with BBB scores being 10 or more, evaluation of the motor function was performed by using a treadmill (manufactured by Muromachi Kikai Co., Ltd) on the 21st and the 28th day. The treadmill tests were performed for 5 minutes with velocity of the treadmill walking surface being kept at 8 m/min. In the test, a period of time during which the animal walked with four legs was measured, and in addition, total number of the contact of the animal with the end wall of the walking surface due to the stop walking of the animal was measured, thereby motor function was evaluated.

[2] = tested on: traumatic spinal cord injury model rats; experiment: Basso-Beattie-Bresnahan (BBB) score, motor function of the hind limb in traumatic spinal cord injury model rats; format: in vivo, Wistar rats; settings: for BBB score: 21st day from the injury; for BBB scores compared to the control group (FIG. 1): time course after the injury
Method: as §1, §2

CC1=C(/C=C/C(C)=C/C=C/C(C)=C/C(=O)O)C(C)(C)CCC1 [Vitamin A acid, all-trans retinoic acid]
increase of regenerated nerves (regenerated nerves): 30%
recovery in nerve and motor functions (regenerated nerves): no recovery

CC1(C)CCC(C)(C)c2cc(NC(=O)c3ccc(C(=O)O)cc3)ccc21 [4-[(5,6,7,8-tetrahydro-5,5,8,8-tetramethyl-2-naphthalenyl)carbamoyl]benzoic acid]
Number of contact to back end wall ([1]; oral 3.0 mg/kg once a day): 16.0 ± 8.3(**)
number of the contact with the back end wall as compared to the control group ([1]; oral administration): remarkable decrease
walking period as compared to the control group ([1]; oral administration): prolongation of the walking period
Number of contact to back end wall ([1]; subcutaneous 0.15 mg/kg once a day): 13.4 ± 6.7(**)
number of the contact with the back end wall as compared to the control group ([1]; subcutaneous administration): remarkable decrease
walking period as compared to the control group ([1]; subcutaneous administration): prolongation of the walking period
BBB score ([2]; oral 3.0 mg/kg once a day): 11.43 ± 3.80 ^
BBB scores compared to the control group (FIG. 1) ([2]; oral 3 mg/kg): significantly improved BBB scores
BBB score ([2]; subcutaneous 0.15 mg/kg once a day, *p < 0.05): 12.71 ± 2.28(*)
BBB scores compared to the control group (FIG. 1) ([2]; subcutaneous 0.15 mg/kg): significantly improved BBB scores
